The source of these data is patent US20220387468A1, “METHODS OF TREATING CANCER” (ASTRAZENECA AB, priority 2019, published 2022).

Assay [1] deals with pancreatic cancer cell lines (SLFN11-deficient or SLFN11-proficient). The experiment in a line: Pancreatic cell line panel, 6x6 concentration matrix, live-dead SyTox green assay, Loewe synergy. Format: cell-based. From the text:
SLFN11 RNA seq data (log 2 RPKM values) were downloaded from cancer cell line encyclopedia (CCLE) (Barretina J. et al., Nature, 2012; 483: 603-607) and drug response data (log(IC50) and area under the dose-response curve (AUCs)) from drug sensitivity in cancer database (Yang W et al., Nucleic Acids Res, 2013; 41: […]-61). Cell lines with CCLE RNA seq log 2 RPKM values below 1 were defined as SLFN11-deficient and cell lines with log 2 RPKM values above 1 as SLFN11-proficient. Nineteen pancreatic cell lines in 384-well plates were dosed with increasing concentrations of adavosertib and gemcitabine in a 6×6 concentration matrix using an Echo 555 (LabCyte). The dose range was 0-3 μM for adavosertib, and 0-0.3 μM for gemcitabine; in both cases dilutions 1:3 from the top dose were performed. Five days following continuous treatment, cell viability was determined by live-dead SyTox green assay (Life Technologies, Carlsbad, Calif., USA). Synergy was analyzed in Genedata screener software using the Loewe dose-additivity model as described above.

In assay [2] the test system is DU145 isogenic cells (WT and SLFN11 KO). Type of assay: cell-based. The note with it: SLFN11 KO cells compared to wild type DU145 cells; 72 hours; FIG. 2D. Here is the method: For cell survival experiment in 96 well plate, cells were seeded in 96-well plates, following compound dosing using a HP dispenser. 72 hours later, cell viability was determined with end-point CellTiter-Glo luminescent assays (Promega). Percentage growth was calculated using the equation (T−T0)/(C−T0)×100, where T=compound-treated cells; T0=cells at 0 h time point and C=control cells. Dose response curves were plotted in GraphPad prism.

For the molecule `C=CCn1c(=O)c2cnc(Nc3ccc(N4CCN(C)CC4)cc3)nc2n1-c1cccc(C(C)(C)O)n1` [adavosertib], the “response (log IC50) of SLFN11-deficient versus SLFN11-proficient cell lines” value in assay [1] (adavosertib monotherapy, FIG. 3B) was “same response”. Turning to `CC[C@@]1(O)C(=O)OCc2c1cc1n(c2=O)Cc2cc3ccccc3nc2-1` [camptothecin], the “sensitivity to DDA monotherapy (survival curves)” value (“sensitivity to DDA monotherapy” for short) in assay [2] is “resistant”.

In the case of `N.N.[Cl][Pt][Cl]` [cisplatin], in assay [2], the “sensitivity to DDA monotherapy” value is “resistant”.

`COc1cc([C@@H]2c3cc4c(cc3[C@@H](O[C@@H]3O[C@@H]5CO[C@@H](C)O[C@H]5[C@H](O)[C@H]3O)[C@H]3COC(=O)[C@H]23)OCO4)cc(OC)c1O` [etoposide]: the “sensitivity to DDA monotherapy” value in assay [2] is “resistant”. With `Nc1ccn([C@@H]2O[C@H](CO)[C@@H](O)C2(F)F)c(=O)n1` [gemcitabine], the “sensitivity to DDA monotherapy” value in assay [2] is given as “resistant”. In addition, the “sensitivity (log IC50) of SLFN11-deficient versus SLFN11-proficient cell lines, fold less sensitive” value in assay [1] (gemcitabine monotherapy, on average, FIG. 3A) was 100 times.

Regarding `NC(=O)NO` [hydroxyurea], in assay [2], the “sensitivity to DDA monotherapy” value is given as “resistant”.
